Assay results reported in patent publication EP0721774A2, “Anti-microbial compositions” (UNILEVER N.V., priority 1994, dated 1996).

What was measured:
Lactobacilli = assay: Minimum inhibitory concentration (MIC), spot dilution on lawned SDM agar plates; format: cell-based
Procedure: (§1) The minimum inhibitory concentrations (MICs) of these peptides were determined as follows: Organisms were subcultured from BHIS agar into BHI broth and incubated at 37°C for 2 days. They were then diluted 1/100 in fresh broth and flooded onto pre-dried SDM agar plates. Excess culture was removed by pipetting. Plates were then allowed to dry at room temperature. The various synthesised peptides were dissolved in sterile water at a concentration of 1 %. Doubling dilutions, in water, were carried out down to 0.03 %. 15 µl of each dilution was spotted onto the lawned cultures, allowed to dry and then the plates were incubated at 37°C for 2 days. Plates were then read for zones of inhibition. The MIC was taken as the lowest dilution still causing visible growth inhibition.
(§2) All organisms were routinely grown on supplemented Brain Heart Infusion agar (Difco) and when appropriate subcultured into Brain Hearth Infusion broth (Difco). For MIC assays a chemically defined solid medium (SDM) was used^(5).
Lactobacilli were from the in house Colworth Microbial Culture Collection. SB115 and SB116 were L.casei var. rhamnosus, SB82 had been classified as L.plantarum, SB83 and SB85 were Lactobacillus sp. and SB 9 was L.casei.

S.sanguis = assay: as above; format: cell-based, Streptococcus sanguis
Procedure: as §1, §2
Streptococcus sanguis strains were all clinical isolates from the plaque of panellists in ongoing oral ecology studies.

Actinomyces = assay: as above; format: cell-based
Procedure: as §1, §2
Actinomyces 12/2, 69A and 41A were plaque isolates from oral ecology studies.

Candida = assay: as above; format: cell-based
Procedure: as §1, §2
Candida strains 83 and 41 were isolated from oral ecology studies.

C. albicans = details: compared among histatins -1, -3 and -5; cited from earlier work
S.mutans = assay: Minimum inhibitory concentration (MIC), spot dilution on lawned SDM agar plates; format: cell-based, Streptococcus mutans
Procedure: as §1, §2
The organisms used were the following: Streptococcus mutans strains were clinical isolates, from the plaque of panellists in oral ecology studies. […] SM11060 belonged to serotype f and SM10919 belonged to serotype g. Strain SMB13 (serotype d) was supplied by PHLS, Porton Down.

S.salivarius = assay: as above; format: cell-based, Steptococcus salivarius
Procedure: as §1, §2
Steptococcus salivarius strans were all wild plaque isolates from oral ecology studies.

Histatin-5
MIC (Lactobacilli; strain SB9 (L.casei)): 1.0% | MIC (Lactobacilli; strain SB81): 0.125% | MIC (Lactobacilli; strain SB82 (L.plantarum)): 0.125% | MIC (Lactobacilli; strain SB116 (L.casei var. rhamnosus)): 1.5% | MIC (S.sanguis; strain 6/9): growth stimulated | MIC (S.sanguis; strain 10/23): growth stimulated | MIC (S.sanguis; strain SS209): growth stimulated | MIC (Actinomyces; strain 10A): 1.0% | MIC (Actinomyces; strain 11A): 0.5% | MIC (Actinomyces; strain 16A): growth stimulated | MIC (Actinomyces; strain 41A): 1.0% | MIC (Actinomyces; strain 69A): growth stimulated | MIC (Actinomyces; strain 71A): 0.5% | MIC (Candida; strain 41): >1.0% | MIC (Candida; strain 83): >1.0% | ability to kill the pathogenic yeast C. albicans (C. albicans): most effective | MIC (S.mutans; strain SM1dg): 1.0% | MIC (S.mutans; strain SM24dg): 1.0% | MIC (S.mutans; strain SM28B): 1.0% | MIC (S.mutans; strain SM44A): 0.5% | MIC (S.mutans; strain SM84C): 1.0% | MIC (S.mutans; strain SM148dg): 0.5% | MIC (S.mutans; strain SM189): 0.5% | MIC (S.mutans; strain SM211): 0.25% | MIC (S.mutans; strain SM6715): 0.5% | MIC (S.mutans; strain SM10449): 0.25% | MIC (S.mutans; strain SMNW1): 1.0% | MIC (S.mutans; strain SMNW6): 1.0% | MIC (S.mutans; strain SMNW10): 0.5% | MIC (S.salivarius; strain 2/7): growth stimulated | MIC (S.salivarius; strain 2/27): growth stimulated | MIC (S.salivarius; strain 14/9): growth stimulated
